Assay in all cases: NCI tumour cell line growth inhibition, 48 h
Experiment [1] concerns U251 CNS.
The subject of experiment [2] is HOP-62 NSCLC.
Experiment [3] relates to M14 melanoma.
Experiment [4] concerns OVCAR-8 ovarian.
Experiment [5] deals with SR leukemia.
Experiment [6] concerns ACHN renal.
In experiment [7] the test system is SK-MEL-5 melanoma.
Experiment [8] deals with HL-60(TB) leukemia.
Experiment [9] relates to K-562 leukemia.
The test system of experiment [10] is MDA-MB-435.

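Grown in 96-well plates, cells were treated for 48 hours with each compound at five concentrations. Insufficient inhibition: endpoint recorded as highest concentration tested. TGI is the concentration that stops growth completely.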

For the compound `O=C(N/N=C1/C(=O)c2c3ccccc3cc3cccc1c23)c1ccccc1`, the TGI in experiment [1] was 98.3 µM; in experiment [2], 40.3 µM; in [3] it was greater than 100 µM; in experiment [4], greater than 92.3 µM; in [5], greater than 100 µM; in experiment [6], greater than 67.4 µM. Further, the TGI in experiment [7] is greater than 63.2 µM; in [8] it was greater than 100 µM; in experiment [9], greater than 100 µM; in experiment [10], greater than 86.7 µM.

As for `CCNC(=O)c1c(O)c2ccccc2[nH]c1=O`, the TGI in [1], in experiment [2], in [4], in experiment [5], in experiment [6] and in [7] was greater than 100 µM throughout. Besides, the TGI in [8], in experiment [9] and in experiment [10] was greater than 100 µM throughout.

With `CC(C)=CCC/C(C)=C/CC/C(C)=C/CC/C(=C/CC/C(C)=C\CC/C(C)=C/CC/C(C)=C/CC/C(C)=C/Cc1cc(O)ccc1O)CO`, the TGI in experiment [1] is greater than 28.5 µM; in [2] it was 41.3 µM; in experiment [3] it was 4.88 µM; in experiment [4], 13.5 µM; in [5] it was greater than 37.6 µM; in [6] it was 34.9 µM. For the same compound, the TGI in experiment [7] was 15.9 µM; in experiment [8], 9.5 µM; in experiment [9], greater than 100 µM; in experiment [10] it was greater than 31.8 µM.

Regarding `C=C1C(=O)O[C@@H]2C[C@]3(C)CC[C@]4(C)[C@H](CC[C@@H]5[C@@]6(C)CCC(=O)C(C)(C)[C@@H]6CC[C@]54C)[C@H]3[C@H]12`, the TGI in experiment [1] came to 38.4 µM; in experiment [2], 49.2 µM; in [3], 31.3 µM; in experiment [4], 38.7 µM; in experiment [5], 36.5 µM; in [6], 24.2 µM. Moreover, the TGI is 25.1 µM in experiment [7], 3.72 µM in experiment [8], 16.7 µM in [9] and 25.4 µM in experiment [10].

On to `FC(F)(F)c1cccc(-c2nc3ccccc3c3c2[C@@]2(N4CCCC4)CCCC[C@@H]32)c1`, for which the TGI is 71.4 µM in [1]; greater than 100 µM in experiment [2]; greater than 100 µM in experiment [3]; greater than 100 µM in [5]; 30.4 µM in [7]; 71.6 µM in experiment [8]. Besides, the TGI was greater than 100 µM in [9] and 59.3 µM in experiment [10].

Regarding `Clc1ccc(C2Nc3ccccc3C3=NCCN32)cc1` (stereo not given), the TGI in experiment [1] is 78.6 µM; in experiment [2], greater than 100 µM; in [3] it was 30.6 µM; in [4] it was 38.3 µM; in [5] it was 59.2 µM; in [6] it was greater than 100 µM. Also, the TGI turned out to be 34.4 µM in experiment [7], 57.1 µM in experiment [8], 46.2 µM in experiment [9] and 39.8 µM in [10].

As for `CC1=Nc2sc3c(c2C2=NCCN12)CCCC3`, the TGI in experiment [1] is 70.7 µM; in experiment [2] it was greater than 100 µM; in experiment [4], 50.6 µM; in [5], 65.2 µM; in experiment [6], 69.9 µM; in experiment [7], 77.4 µM. For the same compound, the TGI was 61 µM in experiment [8], greater than 100 µM in [9] and 91.6 µM in experiment [10].

Take `CC(=O)N=C1N(/C=C2\C(=O)Oc3ccccc3C2=O)C(=O)/C(=C/c2ccc(NC(C)=O)cc2)N1C`: the TGI in experiment [1], in experiment [2], in experiment [3], in [4], in experiment [5] and in experiment [6] was greater than 100 µM each time. The TGI in experiment [7], in [8], in experiment [9] and in [10] was greater than 100 µM in each case.

Consider `CC1(C)C2CC(=O)C1(C)C(OCc1ccccc1)C2` (stereo not given), for which the TGI in experiment [1] was greater than 100 µM; in [2] it was greater than 100 µM; in [3], 71.3 µM; in [4], greater than 100 µM; in [5], 81.1 µM; in [6], greater than 100 µM. For the same compound, the TGI in [7] was greater than 100 µM; in experiment [8] it was 62.3 µM; in experiment [9], 77.6 µM; in experiment [10] it was greater than 100 µM.

As for `C=C1C(=O)O[C@H]2[C@@H](O)[C@H](C)CCC[C@]3(C)O[C@H]3CC[C@@]3(C)O[C@@H]3C[C@@H]12`, the TGI in experiment [1] worked out at 15.7 µM; in experiment [2], 14.3 µM; in [3], 12.4 µM; in [4], 13.4 µM; in [5], 5.99 µM; in experiment [7] it was 10.5 µM. The values for the TGI in [8], in experiment [9] and in experiment [10] were 2.03 µM, 3.25 µM and 10 µM, respectively.

For the compound `O=C(Cc1ccccc1)Nn1c(-c2ccccc2)nc2ccccc2c1=O`, the TGI in experiment [1], in experiment [2], in experiment [3], in [4], in experiment [5] and in experiment [6] was greater than 100 µM each time. The TGI in [7], in experiment [8], in experiment [9] and in [10] was greater than 100 µM in each case.

On to `Cc1noc(NC2=CC(=O)C(=O)c3ccccc32)c1C`, for which the TGI in [1], in experiment [2], in [3], in experiment [4], in [5] and in experiment [6] was greater than 100 µM throughout. In addition, the TGI in [7] amounted to 3.75 µM; in experiment [8], 52.2 µM; in experiment [9], 0.872 µM; in experiment [10], 0.397 µM.

For the compound `CCOC(=O)C(NC(=O)c1ccccc1)(N1CCOCC1)C(F)(F)F` (stereo not given), the TGI in experiment [1], in experiment [2], in experiment [3], in experiment [4], in experiment [5] and in [6] was greater than 100 µM throughout. The TGI in experiment [7], in experiment [8], in [9] and in experiment [10] was greater than 100 µM each time.

As to `O=C(NCc1cccc2ccccc12)N/N=C\c1ccc(Cl)cc1`, the TGI in [1], in experiment [2], in experiment [3], in experiment [4], in experiment [5] and in experiment [6] was greater than 100 µM in each case. Further, the TGI in [7], in experiment [8], in [9] and in experiment [10] was greater than 100 µM each time.
